According to patent publication US10568852B2, “Combination compositions and their use in methods for treating obesity and obesity-related disorders” (Helmholtz Zentrum Munchen—Deutsches Forschungszentrum fur …, priority 2015, dated 2020):

Assays:
DIO male mice [1] = assay: Body weight of diet-induced obese mice under daily subcutaneous treatment; format: in vivo; conditions: daily subcutaneous injections, vs vehicle
Protocol: (§1) Six- to eight-week-old male C57Bl/6 mice were given ad libitum access to a high-fat, high-sugar diet comprising 58% kcal fat (D12331; Research Diets, New Brunswick, N.J.). The mice had free access to water and were maintained at 23±1° C., constant humidity and on a 12-h light-dark cycle. Mice were maintained under these conditions for a minimum of 20 weeks before study initiation. At study start, mice were randomized into groups matched for body weight and body composition. Compounds were administered subcutaneously 1 h before the onset of the dark phase. Co-administration of compounds was administered by single formulated injections. Assessment of energy intake, energy expenditure and home-cage activity were performed using an indirect calorimetry system (TSE Phenotmaster, TSE Systems, Bad Homburg, Germany).
To assess the effect of icilin alone on the body weight and food intake, DIO male mice were treated 16 days with vehicle (control) or icilin (0.6 mg/kg or 6 mg/kg). […] Compounds were administered by daily subcutaneous injections.
To assess the effect of the combination therapy on the body weight, DIO male mice were treated 4 days with vehicle (control), DMPP alone (10 mg/kg), icilin alone (5 mg/kg) or DMPP (10 mg/ml)+icilin (5 mg/kg). Compounds were administered by daily subcutaneous injections. […]

DIO male mice [2] = assay: Glucose tolerance (intraperitoneal glucose challenge) in DIO mice; format: in vivo; conditions: 7-days treatment, daily subcutaneous injections, vs vehicle
Protocol: We also investigated the effect of DMPP alone on glucose tolerance and area under the curve (AUC). Glucose tolerance was assessed following 7-days treatment of DIO male mice with vehicle (control) or DMPP (1 mg/kg, 5 mg/kg or 10 mg/ml). Compounds were administered by daily subcutaneous injections.
Glucose tolerance was assessed following 7-days treatment of DIO male mice with vehicle (control) or icilin (6 mg/kg). […] Compounds were administered by daily subcutaneous injections.
Glucose tolerance was assessed following 7-days treatment of DIO male mice with vehicle (control), DMPP alone (10 mg/kg), icilin alone (5 mg/kg) or DMPP (10 mg/ml)+icilin (5 mg/kg). Compounds were administered by daily subcutaneous injections.

DIO male mice [3] = conditions: 14 days, DMPP 1 mg/kg, 5 mg/kg or 10 mg/ml, daily subcutaneous injections, vs vehicle
Protocol: as §1
To assess the effect of DMPP alone on the body weight and food intake, diet-induced obese (DIO) male mice were treated 14 days with vehicle (control) or DMPP (1 mg/kg, 5 mg/kg or 10 mg/ml). Compounds were administered by daily subcutaneous injections.

DIO male mice [4] = assay: Energy expenditure (indirect calorimetry) in DIO mice; format: in vivo; conditions: 5-days treatment, icilin 6 mg/kg, daily subcutaneous injections, vs vehicle
Protocol: To assess the effect of icilin alone on the body weight and food intake, DIO male mice were treated 16 days with vehicle (control) or icilin (0.6 mg/kg or 6 mg/kg). The results of these treatments are shown in FIGS. 3(A) and 3(B) (control: white circle; icilin: 0.6 mg/kg (star) or 6 mg/kg (black circle)). The effect on energy expenditure was investigated by a 5-days treatment of DIO male mice with vehicle (control) or icilin (6 mg/kg). Compounds were administered by daily subcutaneous injections. The results of these treatments are shown in FIG. 3(C) (control: white bar; icilin: black bar).

DIO male mice [5] = assay: Fasting glucose in DIO mice; format: in vivo; conditions: 23-days treatment, icilin 6 mg/kg, daily subcutaneous injections, vs vehicle
Protocol: Glucose tolerance was analyzed in 6 h fasted mice, following an intraperitoneal challenge with 1.5 g glucose per kg body weight. Glucose levels were measured in blood sampled from the tail veins before (0 min) and at 15, 30, 60 and 120 min post injection. To measure glucose-stimulated insulin secretion blood was collected from tail veins into EDTA-coated microvette tubes (Sarstedt) at time points 0, 15 and 60 min post glucose injection. Insulin sensitivity was assessed in 6 h fasted mice following an intraperitoneal injection of 0.7 U of insulin (Actrapid) per kg body weight. Blood glucose levels were measured before (0 min) and at 15, 30, 60 and 120 minutes after the insulin injection. Insulin was measured with commercially available kit (ALPCO Diagnostics, Salem, N.H.) per the manufacturer's instructions.
Glucose tolerance was assessed following 7-days treatment of DIO male mice with vehicle (control) or icilin (6 mg/kg). The results are shown in FIG. 3(D) (control: white; icilin: black). Fasting glucose was assessed following 23-days treatment of DIO male mice with vehicle (control) or icilin (6 mg/kg). Compounds were administered by daily subcutaneous injections. The results are shown in FIG. 3(E) (control: white bar; icilin: black bar).

SMILES | effect on body weight (DIO male mice [1]; 14 days, DMPP 1 mg/kg, 5 mg/kg or 10 mg/ml) | effect on glucose tolerance and area under the curve (AUC) (DIO male mice [2]; DMPP 1 mg/kg, 5 mg/kg or 10 mg/ml) | effect on food intake (DIO male mice [3]) | effect on body weight (DIO male mice [1]; 16 days, icilin 0.6 mg/kg or 6 mg/kg) | effect on glucose tolerance (DIO male mice [2]; icilin 6 mg/kg) | effect on energy expenditure (DIO male mice [4]) | effect on fasting glucose (DIO male mice [5])
C[N+]1(C)CCN(c2ccccc2)CC1 [DMPP, dimethylphenylpiperazinium] | dose-dependent weight lowering effect | dose-dependent improvement in glucose tolerance | reduction in food intake | – | – | – | –
O=C1NC(c2cccc([N+](=O)[O-])c2)=CCN1c1ccccc1O [icilin, 3-(2-hydroxyphenyl)-6-(3-nitrophenyl)-3,4-dihydropyrimidin-2(1H)-one] | – | – | – | dose-dependent weight loss | does not lead to a short term improvement in glucose tolerance | increased energy expenditure | improved fasting glucose levels
